Assay results from publication PMC9609098, “Xanthine Oxidase Inhibitory Activity and Chemical Composition of Pistacia chinensis Leaf Essential Oil” (Pharmaceutics, 2022).
In brackets after ≈: the same amount, converted by molar mass. Where two headings read alike, the source gives them in different places.

Assays:
xanthine oxidase [1] = target: T1, xanthine oxidase (Homo sapiens, UniProt P47989); details: cited from earlier work
[2] = target: xanthine oxidase (EC 1.1.3.22) (Homo sapiens, UniProt P47989); test: biochemical; assay type: biochemical; details: for IC50: read-out: IC50 against xanthine oxidase (converted)
Description: Xanthine oxidase inhibitory activity of specimens was evaluated by using in vitro spectrophotometric analysis. Both hypoxanthine and xanthine were used as the substrate in the assay, respectively. We added 117 µL of potassium phosphate buffer (50 mM, pH 7.8), 3 µL of specimen solution, and 60 µL of 0.025 unit/mL xanthine oxidase (EC 1.1.3.22) and mixed well in a 96-well microplate, and the mixture was incubated for 10 min at room temperature (25 °C). We added 100 µL of 0.15 mM substrate (hypoxanthine/xanthine) into the well, and the solution was incubated in the dark for 30 min at 37 °C. Then, 20 µL of 1 N HCl was added to stop the reaction. Absorbance at 290 nm of each well was measured using an ELISA (enzyme-linked immunosorbent assay) microplate reader (SPECTROstar Nano, BMG LABTECH, Offenburg, Germany) after incubation. […] All the experiments were performed in triplicate. Inhibition of the xanthine oxidase inhibitory activity was determined by the following formula: Inhibition (%) = [(Acontrol − Acontrol’s blank) − (Asample − Asample’s blank)/(Acontrol − Acontrol’s blank)] × 100. The IC50, half maximal inhibitory concentration, was calculated from the concentration-response curve of the specimen.

xanthine oxidase [3] = target: T1, xanthine oxidase; details: cited from earlier work; remark: listed apart in the source
xanthine oxidase [4] = target: T1, xanthine oxidase; test: Enzyme kinetic study (Lineweaver–Burk plot); details: for Inhibition type on xanthine oxidase: both substrates, hypoxanthine and xanthine
[5] = Hypoxanthine as the substrate, read-out: IC50 xanthine oxidase inhibition (converted)

Sequence of xanthine oxidase (EC 1.1.3.22) (P47989 whole entry, species assumed): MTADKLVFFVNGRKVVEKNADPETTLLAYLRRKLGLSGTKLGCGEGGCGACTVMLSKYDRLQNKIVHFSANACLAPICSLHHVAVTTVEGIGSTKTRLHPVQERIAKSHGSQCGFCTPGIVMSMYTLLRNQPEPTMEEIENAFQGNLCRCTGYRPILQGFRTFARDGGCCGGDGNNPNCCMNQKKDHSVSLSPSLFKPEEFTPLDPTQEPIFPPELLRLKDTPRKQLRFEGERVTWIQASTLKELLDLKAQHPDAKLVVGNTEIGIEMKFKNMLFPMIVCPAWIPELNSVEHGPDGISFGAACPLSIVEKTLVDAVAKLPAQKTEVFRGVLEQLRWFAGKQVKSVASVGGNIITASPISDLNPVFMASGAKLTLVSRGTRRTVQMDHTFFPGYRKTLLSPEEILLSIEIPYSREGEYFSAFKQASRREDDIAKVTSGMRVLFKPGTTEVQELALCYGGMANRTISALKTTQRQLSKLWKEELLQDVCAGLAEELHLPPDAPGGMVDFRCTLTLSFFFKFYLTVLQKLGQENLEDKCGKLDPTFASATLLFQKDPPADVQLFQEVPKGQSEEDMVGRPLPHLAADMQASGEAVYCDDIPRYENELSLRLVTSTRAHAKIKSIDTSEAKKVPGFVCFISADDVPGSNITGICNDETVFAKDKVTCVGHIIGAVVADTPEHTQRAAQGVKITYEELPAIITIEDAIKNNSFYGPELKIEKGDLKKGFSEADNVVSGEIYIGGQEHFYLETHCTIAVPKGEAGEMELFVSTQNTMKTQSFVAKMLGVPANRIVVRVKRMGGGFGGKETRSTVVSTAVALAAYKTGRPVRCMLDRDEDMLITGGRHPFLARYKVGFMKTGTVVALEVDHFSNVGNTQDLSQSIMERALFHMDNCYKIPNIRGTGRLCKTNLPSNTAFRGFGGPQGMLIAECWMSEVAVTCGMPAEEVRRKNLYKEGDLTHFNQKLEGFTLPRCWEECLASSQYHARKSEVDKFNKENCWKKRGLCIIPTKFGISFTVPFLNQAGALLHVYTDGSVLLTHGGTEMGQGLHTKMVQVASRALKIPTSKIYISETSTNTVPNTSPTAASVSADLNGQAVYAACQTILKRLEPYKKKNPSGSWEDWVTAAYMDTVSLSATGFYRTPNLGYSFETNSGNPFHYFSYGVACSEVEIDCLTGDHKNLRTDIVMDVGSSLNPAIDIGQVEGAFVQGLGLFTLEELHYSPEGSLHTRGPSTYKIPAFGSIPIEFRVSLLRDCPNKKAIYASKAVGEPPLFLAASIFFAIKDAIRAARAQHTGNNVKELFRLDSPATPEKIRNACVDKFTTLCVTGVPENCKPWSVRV
T1 sequence (P47989 whole entry, species assumed): as above

## O=c1cc(-c2ccc(O)cc2)oc2cc(O)cc(O)c12 [apigenin]
Xanthine oxidase [1]; [5]
  IC50: 130 µM

## CC1=CCC2C(C1)C2(C)C (stereo not shown) [3-Carene, 3-carene]
[2]; Hypoxanthine as the substrate
  IC50: 810 µM
[2]; Xanthine as the substrate
  activity against xanthine oxidase (in words): did not display activity

## COC(=O)c1cc(C(=O)O)c[nH]1 [2-metyl ester-1H-pyrrole-4-carboxilyc acid]
Xanthine oxidase [1]; Xanthine as the substrate
  IC50 xanthine oxidase inhibition: 48.86 µg/mL (≈ 289 µM)

## O=c1c(O)c(-c2ccc(O)c(O)c2)oc2cc(O)cc(O)c12 [quercetin]
Xanthine oxidase [3]
  Inhibition type against xanthine oxidase: mixed type

## C=C(C)[C@H]1CC=C(C)CC1 [Limonene, limonene]
[2]; Hypoxanthine as the substrate
  IC50 against xanthine oxidase: 37.69 ± 2.52 µg/mL (≈ 277 µM)
  IC50: 280 µM
[2]; Xanthine as the substrate
  IC50 against xanthine oxidase: 48.04 ± 0.78 µg/mL (≈ 353 µM)
  IC50: 350 µM
Xanthine oxidase [4]; Hypoxanthine as the substrate
  Inhibition Type: Mixed
Xanthine oxidase [4]; Hypoxanthine substrate, inhibitor 40 μg/mL
  Vmax: 0.00027
Xanthine oxidase [4]; Hypoxanthine substrate, inhibitor 50 μg/mL
  Vmax: 0.00025
Xanthine oxidase [4]; Hypoxanthine substrate, inhibitor 100 μg/mL
  Vmax: 0.00024
Xanthine oxidase [4]; Hypoxanthine substrate, inhibitor 200 μg/mL
  Vmax: 0.00023
Xanthine oxidase [4]; Xanthine as the substrate
  Inhibition Type: Mixed
Xanthine oxidase [4]; Xanthine substrate, inhibitor 40 μg/mL
  Vmax: 0.00029
Xanthine oxidase [4]; Xanthine substrate, inhibitor 50 μg/mL
  Vmax: 0.00026
Xanthine oxidase [4]; Xanthine substrate, inhibitor 100 μg/mL
  Vmax: 0.00022
Xanthine oxidase [4]; Xanthine substrate, inhibitor 200 μg/mL
  Vmax: 0.0002
Xanthine oxidase [4]
  Inhibition type on xanthine oxidase: mixed-type inhibitor

## C[C@@H]1O[C@@H](OC[C@H]2O[C@@H](Oc3c(-c4ccc(O)c(O)c4)oc4cc(O)cc(O)c4c3=O)[C@H](O)[C@@H](O)[C@@H]2O)[C@H](O)[C@H](O)[C@H]1O [rutin]
Xanthine oxidase [1]; [5]
  IC50: 99.9 µM

## O=P(O)(O)O[C@H]1[C@H](OP(=O)(O)O)[C@@H](OP(=O)(O)O)[C@H](OP(=O)(O)O)[C@@H](OP(=O)(O)O)[C@H]1OP(=O)(O)O [phytic acid]
Xanthine oxidase [1]; Xanthine as the substrate, read-out: IC50 (inhibition of the formation of uric acid)
  IC50: ~30000 µM

## Oc1ncnc2[nH]ncc12 [Allopurinol, reference compound]
Xanthine oxidase [4]; Hypoxanthine as the substrate
  Inhibition Type: Competitive
Xanthine oxidase [4]; Hypoxanthine substrate, inhibitor 0.313 μg/mL
  Vmax: 0.00025
Xanthine oxidase [4]; Hypoxanthine substrate, inhibitor 0.625 μg/mL
  Vmax: 0.00024
Xanthine oxidase [4]; Hypoxanthine substrate, inhibitor 1.250 μg/mL
  Vmax: 0.00024
Xanthine oxidase [4]; Hypoxanthine substrate, inhibitor 2.500 μg/mL
  Vmax: 0.00024
Xanthine oxidase [4]; Xanthine as the substrate
  Inhibition Type: Competitive
Xanthine oxidase [4]; Xanthine substrate, inhibitor 0.313 μg/mL
  Vmax: 0.00026
Xanthine oxidase [4]; Xanthine substrate, inhibitor 0.625 μg/mL
  Vmax: 0.00026
Xanthine oxidase [4]; Xanthine substrate, inhibitor 1.250 μg/mL
  Vmax: 0.00025
Xanthine oxidase [4]; Xanthine substrate, inhibitor 2.500 μg/mL
  Vmax: 0.00026
Xanthine oxidase [4]
  Inhibition type on xanthine oxidase: competitive
Xanthine oxidase [3]
  Inhibition type against xanthine oxidase: competitive-type inhibition
